Measured values as given in EP0303437A2, “Platinum triamine compounds containing nucleotides or nucleosides as antitumor agents” (ENGELHARD CORPORATION, priority 1987, dated 1989).
Where “and” joins values, the source holds several entries; their conditions need not be identical. Identical values can stand only once.

Tests used:
[1] = tested on: L1210 Leukemia; assay: L1210 Leukemia antitumor screening; type: in vivo, Female CDF₁ mice; conditions: for %ILS: ILS ≧ 25% represents activity; for Surv: survivors per group of 6 mice at three times the MST of controls
Description: (§1) Each of the compounds was evaluated in the Sarcoma 180 Ascites screen and at least some of the compounds were also evaluated in the L1210 Leukemia tumor models.
(§2) L1210 screening was conducted according to a published method. […] Female CDF₁ mice (16 - 22 g) were implanted with 1 x 10⁶ tumor cells ip on day zero. Compounds were administered in 0.5 mL water ip on day one. Groups of 6 mice were used for each dose. A control group of mice received only tumor and 0.5 mL water. A positive control group received tumor and 8 mg/kg cisplatin in 0.5 mL 0.15 M NaCl. The test was terminated after three times the mean survival time (MST) of the control group, surviving mice were counted as dying on that day. Activity was determined based on the percent increase in MST of test mice over controls (%ILS). […] The tumor line was maintained through weekly transfer of 5 x 10⁴ cells in DBA/2 mice.

[2] = tested on: Sarcoma 180 Ascites; assay: Sarcoma 180 Ascites (S180a) antitumor screening; type: in vivo, Female CFW mice; conditions: for %ILS: ILS ≧ 50% indicates activity; for Surv: survivors per group of 6 mice at twice the MST of controls
Description: as §1, §2
Female CFW mice (18 - 25 g) were implanted with 2 x 10⁶ cells ip on day zero. Compounds were administered in 0.5 mL water ip on day one. Groups of 6 mice were used for each test dose as well as controls as defined above. The test was run for twice the MST of the control group, with survivors counted as dying on that day. An ILS of ≧ 50% indicates activity. The tumor line was maintained through weekly transfer of 4 x 10⁶ cells in CFW mice.

[3] = Dose 10 mg/kg ip in water on day one
[4] = Dose 20 mg/kg ip in water on day one
[5] = Dose 40 mg/kg ip in water on day one
[6] = Dose 80 mg/kg ip in water on day one
[7] = Dose 160 mg/kg ip in water on day one
[8] = Dose 320 mg/kg ip in water on day one
[9] = 8 mg/kg cisplatin in 0.5 mL 0.15 M NaCl, survivors per 6 mice, one value per experiment

Compound | %ILS [1, 3] [%] | Surv ([1]; Dose 10 mg/kg ip) | %ILS [1, 4] [%] | Surv ([1]; Dose 20 mg/kg ip) | %ILS [1, 5] [%] | Surv ([1]; Dose 40 mg/kg ip) | %ILS [1, 6] [%] | Surv ([1]; Dose 80 mg/kg ip) | %ILS [2, 3] [%] | Surv ([2]; Dose 10 mg/kg ip) | %ILS [2, 4] [%] | Surv ([2]; Dose 20 mg/kg ip) | %ILS [2, 5] [%] | Surv ([2]; Dose 40 mg/kg ip) | %ILS [2, 6] [%] | Surv ([2]; Dose 80 mg/kg ip) | %ILS [2, 7] [%] | Surv ([2]; Dose 160 mg/kg ip) | %ILS [2, 8] [%] | Surv ([2]; Dose 320 mg/kg ip) | also measured
N.N.Nc1ccn(C2OC(CO)C(O)C2O)c(=O)n1.O=[N+]([O-])[O-].[Cl-].[Pt+2] [cis-[Pt(NH₃)₂(1-β-D-arabinofuranosylcytosine)Cl]NO₃] | -22 | 0/6 | -8 | 0/6 | 0 | 0/6 | 6 | 0/6 | -12 | 0/6 | -3 | 0/6 | 2 | 0/6 | 42 | 2/6 | 51 | 1/6 | 45 | 2/6 | %ILS [1, 7]: 10%; Surv ([1]; Dose 160 mg/kg ip): 0/6; %ILS [1, 8]: 10%; Surv ([1]; Dose 320 mg/kg ip): 0/6
N.N.Nc1ccn(C2CC(O)C(CO)O2)c(=O)n1.[Cl-].[Cl-].[Pt+2] (stereo not drawn) [cis-[Pt(NH₃)₂(2′-deoxycytidine)Cl]Cl] | – | – | – | – | – | – | – | – | 10 | 0/6 | 34 | 0/6 | 61 | 2/6 | 85 | 3/6 | 76 | 4/6 | 51 | 1/6 | –
Nc1ccn(C2OC(CO)C(O)C2O)c(=O)[n+]1[Pt]([NH2])([NH2])[Cl].O=[N+]([O-])[O-] (stereo not drawn) [cis-[Pt(NH₃)₂(cytidine)Cl]NO₃] | – | – | – | – | – | – | – | – | 6 | 0/6 | 1 | 0/6 | -4 | 0/6 | -7 | 0/6 | 8 | 0/6 | 30 | 0/6 | –
Nc1nc2c(c(=O)[nH]1)[n+]([Pt]([NH2])([NH2])[Cl])cn2C1OC(CO)C(O)C1O.O=[N+]([O-])[O-] (stereo not drawn) [cis-[Pt(NH₃)₂(guanosine)Cl]NO₃] | -24 | 0/6 | -4 | 0/6 | -4 | 0/6 | 2 | 0/6 | 2 | 0/6 | 15 | 1/6 | 23 | 0/6 | 16 | 1/6 | 79 | 3/6 | -45 | 1/6 | %ILS [1, 7]: 8%; Surv ([1]; Dose 160 mg/kg ip): 0/6; %ILS [1, 8]: -26%; Surv ([1]; Dose 320 mg/kg ip): 0/6
cis-[Pt(NH₃)₂(2′-deoxycytidine)Cl]NO₃ | 12 | 0/6 | 23 | 0/6 | 26 | 0/6 | 44 | 0/6 | – | – | – | – | – | – | – | – | – | – | – | – | %ILS [1, 7]: 41%; Surv ([1]; Dose 160 mg/kg ip): 0/6; %ILS [1, 8]: 59%; Surv ([1]; Dose 320 mg/kg ip): 0/6
cis-[Pt(NH₃)₂(2′-deoxyguanosine)Cl]Cl | – | – | – | – | – | – | – | – | 2 | 0/6 | 15 | 1/6 | 76 | 4/6 | 88 | 4/6 | 85 | 4/6 | 6 | 2/6 | –
cis-[Pt(NH₃)₂Cl₂] [Positive Control, reference compound] | – | – | – | – | – | – | – | – | – | – | – | – | – | – | – | – | – | – | – | – | Positive Control Surv [1, 9]: 0/6; Positive Control %ILS ([2]; 8 mg/kg cisplatin in 0.5 mL 0.15 M NaCl, one value per experiment, run with the compound of that table section): 86% and 54% and 82% and 59%; Positive Control Surv [2, 9]: 4/6 and 0/6 and 3/6
